In brackets after ≈: the same amount, converted by molar mass.
Legend:
Assay in all cases: in vitro antibacterial evaluation, MIC by broth dilution
Type in all cases: cell-based
Enterococcus sp. = details: broth dilution, 18 hours at 35° C.
Outline: (§1)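 Inoculum 5×10^5 CFU/mL; concentrations 64 to 0.06 μg/mL; MIC defined as lowest inhibitory level. Conducted by broth dilution under NCCLS guidelines.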

Escherichia coli = details: 18 hours at 35° C.
Outline: as §1

Staphylococcus sp. = details: broth dilution, 18 hours at 35° C.
Outline: as §1

Streptococcus sp. = details: broth dilution, 18 hours at 35° C.
Outline: as §1

## N=C1NCC(C(O)C2NC(=O)C(Cc3ccc(OC4OC(CO)C(OC5OC(CO)C(O)C6OC7(OC56)C5CC6CC(C5)CC7C6)C(O)C4O)cc3)NC(=O)C(CC3CCCCC3)NC(=O)CNC(=O)C(CO)NC(=O)C(C(O)C3CNC(=N)N3C3OC(CO)C(O)C(O)C3O)NC2=O)N1 (centres unmarked) [Example 106a, Cyclo[3-cyclohexylalanyl-O-[4-O-[2,3-O-(2-adamantylidene)hexopyranosyl]hexopyranosyl]-tyrosyl-3-(2-iminoimidazolidin-4-yl)seryl-3-(3-hexopyranosyl-2-iminoimidazolidin-4-yl)-serylserylglycyl]]
Enterococcus sp.; Enterococcus avium (GC 4558)
  MIC Enterococcus avium (GC 4558): 4 µg/mL (≈ 2.82 µM)
Enterococcus sp.; Enterococcus faecalis (ATCC 29212)
  MIC Enterococcus faecalis (ATCC 29212): 8 µg/mL (≈ 5.64 µM)
Enterococcus sp.; Enterococcus faecalis (GC 2242)
  MIC Enterococcus faecalis (GC 2242): 4 µg/mL (≈ 2.82 µM)
Enterococcus sp.; Enterococcus faecalis (GC 2691)
  MIC Enterococcus faecalis (GC 2691): 4 µg/mL (≈ 2.82 µM)
Enterococcus sp.; Enterococcus faecalis (GC 3059)
  MIC Enterococcus faecalis (GC 3059): 8 µg/mL (≈ 5.64 µM)
Enterococcus sp.; Enterococcus faecalis (GC 4552)
  MIC Enterococcus faecalis (GC 4552): 4 µg/mL (≈ 2.82 µM)
Enterococcus sp.; Enterococcus faecalis (GC 4553)
  MIC Enterococcus faecalis (GC 4553): 4 µg/mL (≈ 2.82 µM)
Enterococcus sp.; Enterococcus faecalis (GC 4554)
  MIC Enterococcus faecalis (GC 4554): 8 µg/mL (≈ 5.64 µM)
Enterococcus sp.; Enterococcus faecalis (GC 6189)
  MIC Enterococcus faecalis (GC 6189): 4 µg/mL (≈ 2.82 µM)
Enterococcus sp.; Enterococcus faecium (GC 2243)
  MIC Enterococcus faecium (GC 2243): 4 µg/mL (≈ 2.82 µM)
Enterococcus sp.; Enterococcus faecium (GC 4556)
  MIC Enterococcus faecium (GC 4556): 8 µg/mL (≈ 5.64 µM)
Enterococcus sp.; Enterococcus faecium (GC 4557)
  MIC Enterococcus faecium (GC 4557): 2 µg/mL (≈ 1.41 µM)
Enterococcus sp.; strain ATCC 29212
  MIC Enterococcus faecalis (ATCC 29212): 8 µg/mL (≈ 5.64 µM)
Enterococcus sp.; strain GC 2242
  MIC Enterococcus faecalis (GC 2242): 4 µg/mL (≈ 2.82 µM)
Enterococcus sp.; strain GC 2243
  MIC Enterococcus faecium (GC 2243): 4 µg/mL (≈ 2.82 µM)
Enterococcus sp.; strain GC 2691
  MIC Enterococcus faecalis (GC 2691): 4 µg/mL (≈ 2.82 µM)
Enterococcus sp.; strain GC 3059
  MIC Enterococcus faecalis (GC 3059): 8 µg/mL (≈ 5.64 µM)
Enterococcus sp.; strain GC 4552
  MIC Enterococcus faecalis (GC 4552): 4 µg/mL (≈ 2.82 µM)
Enterococcus sp.; strain GC 4553
  MIC Enterococcus faecalis (GC 4553): 4 µg/mL (≈ 2.82 µM)
Enterococcus sp.; strain GC 4554
  MIC Enterococcus faecalis (GC 4554): 8 µg/mL (≈ 5.64 µM)
Enterococcus sp.; strain GC 4556
  MIC Enterococcus faecium (GC 4556): 8 µg/mL (≈ 5.64 µM)
Enterococcus sp.; strain GC 4557
  MIC Enterococcus faecium (GC 4557): 2 µg/mL (≈ 1.41 µM)
Enterococcus sp.; strain GC 4558
  MIC Enterococcus avium (GC 4558): 4 µg/mL (≈ 2.82 µM)
Enterococcus sp.; strain GC 6189
  MIC Enterococcus faecalis (GC 6189): 4 µg/mL (≈ 2.82 µM)
Escherichia coli; strain ATCC 25922
  MIC Escherichia coli (ATCC 25922): 32 µg/mL (≈ 22.5 µM)
Escherichia coli; strain GC 4559
  MIC Escherichia coli (GC 4559): 32 µg/mL (≈ 22.5 µM)
Escherichia coli; strain GC 4560
  MIC Escherichia coli (GC 4560): 2 µg/mL (≈ 1.41 µM)
Staphylococcus sp.
  MIC Coagulase Negative Staphylococcus (GC 4547): 2 µg/mL (≈ 1.41 µM)
  MIC Coagulase Negative Staphylococcus (GC 4548): 1 µg/mL (≈ 0.704 µM)
  MIC Coagulase Negative Staphylococcus (GC 4549): 1 µg/mL (≈ 0.704 µM)
  MIC Coagulase Negative Staphylococcus (GC 4551): 2 µg/mL (≈ 1.41 µM)
  MIC Staphylococcus aureus (ATCC 29213): 2 µg/mL (≈ 1.41 µM)
  MIC Staphylococcus aureus (GC 1131): 2 µg/mL (≈ 1.41 µM)
  MIC Staphylococcus aureus (GC 3051): 2 µg/mL (≈ 1.41 µM)
  MIC Staphylococcus aureus (GC 3053): 2 µg/mL (≈ 1.41 µM)
  MIC Staphylococcus aureus (GC 4541): 2 µg/mL (≈ 1.41 µM)
  MIC Staphylococcus aureus (GC 4542): 2 µg/mL (≈ 1.41 µM)
  MIC Staphylococcus aureus (GC 4544): 4 µg/mL (≈ 2.82 µM)
  MIC Staphylococcus aureus (GC 4545): 2 µg/mL (≈ 1.41 µM)
  MIC Staphylococcus aureus-SMITH (GC 4543): 2 µg/mL (≈ 1.41 µM)
  MIC Staphylococcus haemolyticus (GC 4546): 2 µg/mL (≈ 1.41 µM)
Staphylococcus sp.; strain GC 4546
  MIC Staphylococcus haemolyticus (GC 4546): 2 µg/mL (≈ 1.41 µM)
Staphylococcus sp.; strain GC 4547
  MIC Coagulase Negative Staphylococcus (GC 4547): 2 µg/mL (≈ 1.41 µM)
Staphylococcus sp.; strain GC 4548
  MIC Coagulase Negative Staphylococcus (GC 4548): 1 µg/mL (≈ 0.704 µM)
Staphylococcus sp.; strain GC 4549
  MIC Coagulase Negative Staphylococcus (GC 4549): 1 µg/mL (≈ 0.704 µM)
Staphylococcus sp.; strain GC 4551
  MIC Coagulase Negative Staphylococcus (GC 4551): 2 µg/mL (≈ 1.41 µM)
Staphylococcus sp.; strain SMITH GC 4543
  MIC Staphylococcus aureus-SMITH (GC 4543): 2 µg/mL (≈ 1.41 µM)
Staphylococcus sp.; strain ATCC 29213
  MIC Staphylococcus aureus (ATCC 29213): 2 µg/mL (≈ 1.41 µM)
Staphylococcus sp.; strain GC 1131
  MIC Staphylococcus aureus (GC 1131): 2 µg/mL (≈ 1.41 µM)
Staphylococcus sp.; strain GC 3051
  MIC Staphylococcus aureus (GC 3051): 2 µg/mL (≈ 1.41 µM)
Staphylococcus sp.; strain GC 3053
  MIC Staphylococcus aureus (GC 3053): 2 µg/mL (≈ 1.41 µM)
Staphylococcus sp.; strain GC 4541
  MIC Staphylococcus aureus (GC 4541): 2 µg/mL (≈ 1.41 µM)
Staphylococcus sp.; strain GC 4542
  MIC Staphylococcus aureus (GC 4542): 2 µg/mL (≈ 1.41 µM)
Staphylococcus sp.; strain GC 4544
  MIC Staphylococcus aureus (GC 4544): 4 µg/mL (≈ 2.82 µM)
Staphylococcus sp.; strain GC 4545
  MIC Staphylococcus aureus (GC 4545): 2 µg/mL (≈ 1.41 µM)
Streptococcus sp.; Streptococcus agalactiae (GC 4564)
  MIC Streptococcus agalactiae (GC 4564): 0.25 µg/mL (≈ 0.176 µM)
Streptococcus sp.; Streptococcus pneumoniae (ATCC 6301)
  MIC Streptococcus pneumoniae (ATCC 6301): 0.12 µg/mL (≈ 0.0845 µM)
Streptococcus sp.; Streptococcus pneumoniae (GC 1894)
  MIC Streptococcus pneumoniae (GC 1894): <0.06 µg/mL
Streptococcus sp.; Streptococcus pneumoniae (GC 4565)
  MIC Streptococcus pneumoniae (GC 4565): <0.06 µg/mL
Streptococcus sp.; Streptococcus pyogenes (GC 4563)
  MIC Streptococcus pyogenes (GC 4563): 0.25 µg/mL (≈ 0.176 µM)
Streptococcus sp.; strain ATCC 6301
  MIC Streptococcus pneumoniae (ATCC 6301): 0.12 µg/mL (≈ 0.0845 µM)
Streptococcus sp.; strain GC 1894
  MIC Streptococcus pneumoniae (GC 1894): <0.06 µg/mL
Streptococcus sp.; strain GC 4563
  MIC Streptococcus pyogenes (GC 4563): 0.25 µg/mL (≈ 0.176 µM)
Streptococcus sp.; strain GC 4564
  MIC Streptococcus agalactiae (GC 4564): 0.25 µg/mL (≈ 0.176 µM)
Streptococcus sp.; strain GC 4565
  MIC Streptococcus pneumoniae (GC 4565): <0.06 µg/mL
